The structures appear in SMILES notation.

One test has as its system ABCA1 mRNA. Nature of the test: ABCA1 mRNA induction in THP-1 cells, QuantiGene branched DNA assay. The format is cell-based. Particulars: 10 μM test compound, 18-20 hours. In a few lines: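 THP-1 cells, grown to subconfluence, treated with compounds at 10 and 3 μM in DMEM/BSA for 18–20 h. Lysates hybridized with ABCA1-specific probe 16–18 h at 53 °C; QuantiGene branched DNA luminescence gives fold increase over DMSO.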
For `COc1cc(-c2ccccc2)cc2c1OC[C@H]1[C@@H]2Nc2ccc(C(O)(C(F)(F)F)C(F)(F)F)cc2C1(C)C` [Number 77, 2-((12aS,6aR)-4-methoxy-7,7-dimethyl-2-phenyl(7,12,12a,6a-tetrahydrochromano[4,3-b]quinolin-9-yl))-1,1,1,3,3,3-hexafluoropropan-2-ol], the “ABCA1 Induction Fold Increase over DMSO Vehicle” value (“ABCA1 Induction Fold Increase” for short) worked out at 5.3 FOLD INCREASE.
Same read-out and setting: the result for `COc1cccc2c1[C@H]1Nc3ccc(-c4ccc(C#N)cc4)cc3C(C)(C)[C@@H]1CO2` [Number 92, 4-((12aS,6aS)-1-methoxy-7,7-dimethyl-7,12,12a,6a-tetrahydrochromano[4,3-b]quinolin-9-yl)benzenecarbonitrile] reads 8.7 FOLD INCREASE; that for `COc1cccc2c1[C@H]1Nc3ccc(-c4ccc(F)cc4)cc3C(C)(C)[C@H]1CO2` [Number 109, (12aS,6aR)-9-(4-fluorophenyl)-1-methoxy-7,7-dimethyl-7,12,12a,6a-tetrahydrochromano[4,3-b]quinoline], 4.1 FOLD INCREASE; that for `CC1(C)c2cc(C(O)(C(F)(F)F)C(F)(F)F)ccc2NC2c3cc(C(=O)O)ccc3OCC21` (centres unmarked) [Number 16, 7,7-dimethyl-9-[2,2,2-trifluoro-1-hydroxy-1-(trifluoromethyl)ethyl]-7,12,12a,6a-tetrahydrochromano[4,3-b]quinoline-2-carboxylic acid], 2.4 FOLD INCREASE.
Still for that read-out and setting: the result for `CCOC(=O)c1ccc(-c2ccc3c(c2)C(C)(C)[C@@H]2COc4cccc(OC)c4[C@H]2N3)cc1` [Number 96, ethyl 4-((12aS,6aS)-1-methoxy-7,7-dimethyl-7,12,12a,6a-tetrahydrochromano[4,3-b]quinolin-9-yl)benzoate] reads 7.6 FOLD INCREASE.
With `COc1cc(Br)cc2c1OC[C@@H]1[C@H]2Nc2ccc(C(O)(C(F)(F)F)C(F)(F)F)cc2C1(C)C` [Number 65, 2-((6aS,12aR)-2-bromo-4-methoxy-7,7-dimethyl(7,12,12a,6a-tetrahydrochromano[4,3-b]quinolin-9-yl))-1,1,1,3,3,3-hexafluoropropan-2-ol], the “ABCA1 Induction Fold Increase” value is on record as 3.2 FOLD INCREASE.
Still for that read-out and setting: the result for `COc1cccc2c1[C@H]1Nc3ccc(F)cc3C(C)(C)[C@H]1CO2` [Number 55, (12aS,6aR)-9-fluoro-1-methoxy-7,7-dimethyl-7,12,12a,6a-tetrahydrochromano[4,3-b]quinoline] reads 2.5 FOLD INCREASE.
As for `COc1cccc2c1OCC1C2Nc2ccc(C(N)=S)cc2C1(C)C` (centres unmarked) [Number 58, amino(4-methoxy-7,7-dimethyl(7,12,12a,6a-tetrahydrochromano[4,3-b]quinolin-9-yl))methane-1-thione], the “ABCA1 Induction Fold Increase” value is 6.2 FOLD INCREASE.
On to `COc1cccc2c1[C@H]1Nc3ccc(OC(F)(F)F)cc3C(C)(C)[C@H]1CO2` [Number 57, ((12aS,6aR)-1-methoxy-7,7-dimethyl(7,12,12a,6a-tetrahydrochromano[4,3-b]quinolin-9-yloxy))trifluoromethane], for which the “ABCA1 Induction Fold Increase” value is 6.1 FOLD INCREASE.
With `CCS(=O)(=O)N1CCN(C(=O)c2coc(-c3ccc4c(c3)C(C)(C)[C@H]3COc5cccc(OC)c5[C@H]3N4)n2)CC1` [Number 147, 2-((6aR,12aS)-1-methoxy-6a,7,12,12a-tetrahydro-7,7-dimethyl-6H-chromeno[4,3-b]quinolin-9-yl)oxazole-(4-(4-ethanesulfonylpiperazin-1-yl)methanone)], the “ABCA1 Induction Fold Increase” value is listed as 7 FOLD INCREASE.
For the molecule `COc1cccc2c1OC[C@H]1[C@@H]2Nc2ccc(C(=O)N3CCS(=O)(=O)CC3)cc2C1(C)C` [Number 129, ((6aR,12aS)-6a,7,12,12a-tetrahydro-4-methoxy-7,7-dimethyl-6H-chromeno[4,3-b]quinolin-9-yl)(1,1-dione-1,4-thiazaperhydroin-yl)methanone], the “ABCA1 Induction Fold Increase” value was 4.3 FOLD INCREASE.
On the same count and under the same terms, the result for `COc1cccc2c1[C@H]1Nc3ccc(-c4cnco4)cc3C(C)(C)[C@H]1CO2` [Number 62, (12aS,6aR)-1-methoxy-7,7-dimethyl-9-(1,3-oxazol-5-yl)-7,12,12a,6a-tetrahydrochromano[4,3-b]quinoline] reads 10.6 FOLD INCREASE; that for `COc1cccc2c1OC[C@@H]1[C@H]2Nc2ccc(C(C)C)cc2C1(C)C` [Number 46, (6aS,12aR)-4-methoxy-7,7-dimethyl-9-(methylethyl)-7,12,12a,6a-tetrahydrochromano[4,3-b]quinoline], 4.2 FOLD INCREASE.

The same test, now with this note: Homo sapiens, 10 μM test compound, 18-20 hours, read-out: ABCA1 Induction Fold Increase over DMSO Vehicle.
Regarding `COc1cccc2c1[C@H]1Nc3ccc(C(=O)N4CCNCC4)cc3C(C)(C)[C@H]1CO2` [Number 127, ((6aR,12aS)-6a,7,12,12a-tetrahydro-1-methoxy-7,7-dimethyl-6H-chromeno[4,3-b]quinolin-9-yl)(piperazin-1-yl)methanone], the fold induction at 10 µM turned out to be 5.1.
In the case of `COc1ccc2c(c1)C1Nc3ccc(C(O)(C(F)(F)F)C(F)(F)F)cc3C(C)(C)C1CO2` (centres unmarked) [Number 7, 1,1,1,3,3,3-hexafluoro-2-(2-methoxy-7,7-dimethyl(7,12,12a,6a-tetrahydrochromano[4,3-b]quinolin-9-yl))propan-2-ol], the fold induction at 10 µM amounted to 3.1.
Same read-out and setting: the result for `COc1cc(-c2c(C)noc2C)cc2c1OC[C@H]1[C@@H]2Nc2ccc(-c3cnco3)cc2C1(C)C` [Number 165, (6aR,12aS)-6a,7,12,12a-tetrahydro-4-methoxy-7,7-dimethyl-2-(3,5-dimethylisoxazol-4-yl)-9-(oxazol-5-yl)-6H-chromeno[4,3-b]quinoline] reads 7.4.
The same measure, in the same setting: in the case of `COc1cccc2c1[C@H]1Nc3ccc(-n4cc(C(=O)N(C)C)cn4)cc3C(C)(C)[C@H]1CO2` [Number 137, 1-((6aR,12aS)-6a,7,12,12a-tetrahydro-1-methoxy-7,7-dimethyl-6H-chromeno[4,3-b]quinolin-9-yl)-N,N-dimethyl-1H-pyrazole-4-carboxamide] it was 7.

The values above are taken from patent publication US7432276B2, “ABCA1 elevating compounds” (CV Therapeutics, Inc., priority 2005, dated 2008).
